# Patent EP0549002A1, “Method for the preparation of an antiseptic composition containing clindamycin-hydrochloride and polymyxin” (priority 1991, dated 1993)
# Assays:
# [1] = Acute toxicity (general statement); format: in vivo; conditions: in combination with Clindamycin; mammals and humans
# [2] = system: Pasteurella haemolytica 3R188 and 6R132; test: MIC by plate dilution method (horseblood-agar); format: cell-based; conditions: both P. haemolytica isolates; single agent; observed during 24 hours
# Protocol: Two clinical isolates of Pasteurella haemolytica were studied. The bacteria were isolated from calves and identified. The isolates included P. haemolytica 3R188 and 6R132.
# The strength of the inoculating suspension was 2 MacFarland. The plates were observed during 24 hours after incubation.
# [3] = system: Mycoplasma hyorhinis type strain BTS-7; test: MIC by serial broth dilution method (Friis broth, glucose metabolism colour change); format: cell-based; conditions: single agent; read at day 5; 37°C aerobic
# Protocol: Friis-broth was added to each well.
substance,measurement,setting,value
Polymyxin E (Colistin),acute toxicity,[1],strikingly reduced
same,minimal inhibitory concentrations (MICs),[2],"1,6 µg/ml"
same,MIC,[3],> 50 µg/mL
